This is an account of results in PubChem BioAssay AID330 (DTP/NCI, 2004).

Where “and” joins values, the source holds several entries; their conditions need not be identical. Equal entries are not always repeated. Toxic doses and inconclusive results are not listed.

This assay has as its system P388 leukemia ip, CD2F1 mice, survival T/C. Briefly: NCI In Vivo Anticancer Drug Screen. Data for tumor model P388 Leukemia (intraperitoneal) in CD2F1 (CDF1) mice. The conditions noted are these: endpoint: median survival time, higher = longer survival. In outline: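 Mice carrying the transplanted tumor received test compound or vehicle. Survival was recorded in each group, and the value is the treated-group measurement divided by that of the vehicle-treated control group.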

The mark [1] stands for this setting: dose: 25.0 mg/kg/injection, schedule: Q01DX009 (ip), vehicle: distilled water + Tween-80.
Where [2] appears, read: dose: 100.0 mg/kg/injection, schedule: Q01DX009 (ip), vehicle: distilled water + Tween-80.
The mark [3] stands for this setting: dose: 200.0 mg/kg/injection, schedule: Q01DX009 (ip), vehicle: distilled water + Tween-80.
The mark [4] stands for this setting: dose: 60.0 mg/kg/injection, schedule: Q01DX005 (ip), vehicle: saline with Tween-80.
[5] abbreviates: dose: 120.0 mg/kg/injection, schedule: Q01DX005 (ip), vehicle: saline with Tween-80.
Setting [6] is: dose: 240.0 mg/kg/injection, schedule: Q01DX005 (ip), vehicle: saline with Tween-80.
Where [7] appears, read: dose: 50.0 mg/kg/injection, schedule: Q01DX009 (ip), vehicle: saline with Tween-80.
Where [8] appears, read: dose: 100.0 mg/kg/injection, schedule: Q01DX009 (ip), vehicle: saline with Tween-80.
The mark [9] stands for this setting: dose: 200.0 mg/kg/injection, schedule: Q01DX009 (ip), vehicle: saline with Tween-80.
The mark [10] stands for this setting: dose: 25.0 mg/kg/injection, schedule: Q01DX009 (ip), vehicle: saline with Tween-80.
The mark [11] stands for this setting: dose: 25.0 mg/kg/injection, schedule: Q01DX009 (ip), vehicle: saline.
The mark [12] stands for this setting: dose: 50.0 mg/kg/injection, schedule: Q01DX009 (ip), vehicle: saline.
The mark [13] stands for this setting: dose: 50.0 mg/kg/injection, schedule: Q01DX009 (ip), vehicle: suspension in saline.

Take `CNC(=O)OCc1c(COC(=O)NC)c(-c2ccc(Cl)c(Cl)c2)n2c1Cc1ccccc1C2`: the T/C was 153 % of control and 160 % of control under setting [1]; 155 % of control and 195 % of control (dose: 50.0 mg/kg/injection, schedule: Q01DX009 (ip), vehicle: distilled water + Tween-80); 171 % of control and 189 % of control under setting [2]; 117 % of control and 97 % of control under setting [3].

As for `O=C(O)CCCC/C=C/CCCCCCC1C=CCC1` (configuration not stated), the T/C was 93 % of control (dose: 100.0 mg/kg/injection, schedule: Q04DX003 (ip), vehicle: saline); 98 % of control (dose: 200.0 mg/kg/injection, schedule: Q04DX003 (ip), vehicle: saline); 91 % of control (dose: 400.0 mg/kg/injection, schedule: Q04DX003 (ip), vehicle: saline).

For the molecule `COC(=O)c1sc(N2CCCC2)nc1N`, the T/C under setting [4] is 102 % of control, the T/C under setting [5] was 99 % of control and the T/C under setting [6] is 97 % of control.

Turning to `O=C(O)CNC(=O)C(F)(F)F`, the T/C under setting [7] is 93 % of control, the T/C under setting [8] is 91 % of control and the T/C under setting [9] was 95 % of control.

As to `N#CC1(C#N)C2CCCCC21` (configuration not stated), the T/C is 107 % of control (dose: 3.75 mg/kg/injection, schedule: Q01DX005 (ip), vehicle: saline with Tween-80); 100 % of control (dose: 7.5 mg/kg/injection, schedule: Q01DX005 (ip), vehicle: saline with Tween-80); 96 % of control (dose: 15.0 mg/kg/injection, schedule: Q01DX005 (ip), vehicle: saline with Tween-80).

As to `CNC(=O)OCc1c(COC(=O)NC)c(-c2ccccc2)n(-c2ccc(Cl)c(Cl)c2)c1C`, the T/C runs as follows: (dose: 12.5 mg/kg/injection, schedule: Q01DX009 (ip), vehicle: distilled water + Tween-80) 117 % of control; under setting [1], 160 % of control; under setting [2], 155 % of control and 165 % of control; under setting [3], 155 % of control and 184 % of control; (dose: 400.0 mg/kg/injection, schedule: Q01DX009 (ip), vehicle: distilled water + Tween-80) 87 % of control.

With `CCOC(=O)N[C@H]1CCc2cc(O)c(OC)c(OC)c2-c2ccc(SC)c(=O)cc21`, the T/C was 120 % of control (dose: 1.25 mg/kg/injection, schedule: Q01DX009 (ip), vehicle: Klucel (hydroxypropylcellulose) (HPC)) and 109 % of control (dose: 10.0 mg/kg/injection, schedule: Q01DX009 (ip), vehicle: Klucel (hydroxypropylcellulose) (HPC)).

For `O=C1CCSC(=S)N1c1ccc(Cl)c([N+](=O)[O-])c1`, the T/C runs as follows: under setting [10], 87 % of control; under setting [11], 97 % of control; under setting [7], 88 % of control; under setting [12], 104 % of control; under setting [13], 103 % of control; under setting [8], 98 % of control. Moreover, the T/C (dose: 100.0 mg/kg/injection, schedule: Q01DX009 (ip), vehicle: saline) was 97 % of control; the T/C (dose: 100.0 mg/kg/injection, schedule: Q01DX009 (ip), vehicle: suspension in saline) was 109 % of control; the T/C under setting [9] was 115 % of control; the T/C (dose: 200.0 mg/kg/injection, schedule: Q01DX009 (ip), vehicle: saline) is 97 % of control.

Turning to `NN(CC(O)COc1ccccc1)C(=O)c1ccccc1O` (configuration not stated), the T/C is, setting by setting: (dose: 50.0 mg/kg/injection, schedule: Q01DX009 (ip), vehicle: Klucel (hydroxypropylcellulose) (HPC)) 108 % of control; (dose: 100.0 mg/kg/injection, schedule: Q01DX009 (ip), vehicle: Klucel (hydroxypropylcellulose) (HPC)) 108 % of control; (dose: 200.0 mg/kg/injection, schedule: Q01DX009 (ip), vehicle: Klucel (hydroxypropylcellulose) (HPC)) 106 % of control.

With `O=C1CCC(N2C(=O)CC3(CCCC3)C2=O)C(=O)N1c1ccc([N+](=O)[O-])cc1` (configuration not stated), the T/C is 106 % of control under setting [7], 109 % of control under setting [8] and 99 % of control under setting [9].

`O=[N+]([O-])c1ccc(-c2nc(/C=N/N3CCOCC3)cs2)s1`: the T/C runs as follows: under setting [10], 110 % of control; under setting [7], 115 % of control; under setting [8], 114 % of control.

Regarding `COc1ccc2c(c1)CN1C(CCC3c4ccccc4NC31)C2` (configuration not stated), the T/C runs as follows: under setting [4], 99 % of control; under setting [5], 95 % of control; under setting [6], 95 % of control.

For `CCN(CC)C(=O)C(N)Cc1ccc(OC)c(N(CCCl)CCCl)c1` (configuration not stated), the T/C (dose: 6.25 mg/kg/injection, schedule: Q01DX009 (ip), vehicle: saline) is 113 % of control; the T/C (dose: 6.25 mg/kg/injection, schedule: Q01DX009 (ip), vehicle: suspension in saline) is 116 % of control; the T/C under setting [11] is 150 % of control; the T/C (dose: 25.0 mg/kg/injection, schedule: Q01DX009 (ip), vehicle: suspension in saline) was 150 % of control; the T/C under setting [12] is 177 % of control; the T/C under setting [13] is 172 % of control.

In the case of `Cc1oc2c(C)c3oc(=O)cc(C)c3cc2c1CN1C(=O)c2ccccc2C1=O`, the T/C runs as follows: (dose: 100.0 mg/kg/injection, schedule: Q05DX002 (ip), vehicle: saline with Tween-80) 99 % of control; (dose: 200.0 mg/kg/injection, schedule: Q05DX002 (ip), vehicle: saline with Tween-80) 92 % of control; (dose: 400.0 mg/kg/injection, schedule: Q05DX002 (ip), vehicle: saline with Tween-80) 98 % of control.

As for `O=C(Nc1ccc(N=C=S)cc1Cl)c1cc(Br)cc(Br)c1O`, the T/C (dose: 25.0 mg/kg/injection, schedule: Q01DX001 (ip), vehicle: Klucel (hydroxypropylcellulose) (HPC)) is 106 % of control; the T/C (dose: 50.0 mg/kg/injection, schedule: Q01DX001 (ip), vehicle: Klucel (hydroxypropylcellulose) (HPC)) was 100 % of control; the T/C (dose: 100.0 mg/kg/injection, schedule: Q01DX001 (ip), vehicle: Klucel (hydroxypropylcellulose) (HPC)) is 92 % of control and 95 % of control.

Regarding `O=C(Nc1ccc(S(=O)(=O)F)cc1)/C(=C/c1cccc([N+](=O)[O-])c1)c1ccccc1`, the T/C was 102 % of control (dose: 60.0 mg/kg/injection, schedule: Q01DX005 (ip), vehicle: Klucel (hydroxypropylcellulose) (HPC)); 98 % of control (dose: 120.0 mg/kg/injection, schedule: Q01DX005 (ip), vehicle: Klucel (hydroxypropylcellulose) (HPC)); 94 % of control (dose: 240.0 mg/kg/injection, schedule: Q01DX005 (ip), vehicle: Klucel (hydroxypropylcellulose) (HPC)).

In the case of `CCc1cccc(CC)c1N1C(=O)C(=O)C(C(C)=O)C1=O` (configuration not stated), the T/C was 101 % of control (dose: 25.0 mg/kg/injection, schedule: Q01DX005 (ip), vehicle: saline with Tween-80); 99 % of control and 101 % of control (dose: 50.0 mg/kg/injection, schedule: Q01DX005 (ip), vehicle: saline with Tween-80); 101 % of control (dose: 100.0 mg/kg/injection, schedule: Q01DX005 (ip), vehicle: saline with Tween-80); 89 % of control (dose: 200.0 mg/kg/injection, schedule: Q01DX005 (ip), vehicle: saline with Tween-80).

`OC(CCCCl)CC(O)(C(F)(F)F)C(F)(F)F` (configuration not stated): the T/C under setting [7] was 110 % of control, the T/C under setting [8] was 110 % of control and the T/C under setting [9] is 110 % of control.

`COc1ccc(C=Nc2c(N)[nH]c(=S)[nH]c2=O)cc1`: the T/C is 100 % of control (dose: 100.0 mg/kg/injection, schedule: Q04DX002 (ip), vehicle: saline with Tween-80); 106 % of control (dose: 200.0 mg/kg/injection, schedule: Q04DX002 (ip), vehicle: saline with Tween-80); 107 % of control (dose: 400.0 mg/kg/injection, schedule: Q04DX002 (ip), vehicle: saline with Tween-80); 106 % of control (dose: 600.0 mg/kg/injection, schedule: Q04DX002 (ip), vehicle: saline with Tween-80).

Consider `Cc1ccc(S(=O)(=O)/C=C/C(=O)c2ccco2)cc1`, for which the T/C was 108 % of control (dose: 100.0 mg/kg/injection, schedule: Q04DX002 (ip), vehicle: saline); 112 % of control (dose: 200.0 mg/kg/injection, schedule: Q04DX002 (ip), vehicle: saline); 100 % of control (dose: 400.0 mg/kg/injection, schedule: Q04DX002 (ip), vehicle: saline).

Regarding `NC(N)=NN=c1/c(=N\N=C(N)N)c2ccccc2/c1=N/N=C(N)N`, the T/C (dose: 25.0 mg/kg/injection, schedule: Q01DX001 (ip), vehicle: saline) was 99 % of control.

Consider `Cn1c(C(C)(C)O)cnc1[N+](=O)[O-]`, for which the T/C is, setting by setting: under setting [7], 103 % of control; under setting [9], 94 % of control.
